Assay results from ChEMBL document CHEMBL3603744, “Structure activity relationship of C-2 ether substituted 1,5-naphthyridine analogs of oxabicyclooctane-linked novel bacterial topoisomerase inhibitors as broad-spectrum antibacterial agents (Part-5)” (Bioorg Med Chem Lett, 2015).
In brackets after ≈: the same amount, converted by molar mass. Activity calls are given as the source filed them. No rule for the calls is given here.

Key:
[1] = tested on: Streptococcus pneumoniae; experiment: Antimicrobial activity against Streptococcus pneumoniae IID553 by micro broth dilution or agar based method; type: functional
[2] = tested on: Enterococcus faecium; experiment: Antimicrobial activity against vancomycin-resistant Enterococcus faecium VanA by micro broth dilution or agar based method; type: functional
[3] = tested on: Escherichia coli; experiment: Antimicrobial activity against Escherichia coli ATCC 25922 by micro broth dilution or agar based method; type: functional
[4] = tested on: Acinetobacter baumannii; experiment: Antimicrobial activity against Acinetobacter baumannii IID876 by micro broth dilution or agar based method; type: functional
[5] = tested on: Pseudomonas aeruginosa; experiment: Antimicrobial activity against Pseudomonas aeruginosa PAO1 by micro broth dilution or agar based method; type: functional
[6] = tested on: Staphylococcus aureus; experiment: Antimicrobial activity against Staphylococcus aureus Smith by micro broth dilution or agar based method; type: functional
[7] = tested on: Staphylococcus aureus; experiment: Antimicrobial activity against methicillin-resistant Staphylococcus aureus OIT971 by micro broth dilution or agar based method; type: functional, organism-based

| SMILES | MIC [1] [µg/mL] | MIC [2] [µg/mL] | MIC [3] [µg/mL] | MIC [4] [µg/mL] | MIC [5] [µg/mL] | MIC [6] [µg/mL] | growth inhibition (GI) [7] |
| --- | --- | --- | --- | --- | --- | --- | --- |
| O=C1COc2ccc(CNC34CCC(CCc5c(F)cnc6ccc(OCCCCCO)nc56)(CC3)OC4)nc2N1 | 1 (≈ 1.77 µM) | 4 (≈ 7.07 µM) | 8 (≈ 14.1 µM) | 8 (≈ 14.1 µM) | 8 (≈ 14.1 µM) | 0.063 (≈ 0.111 µM) |  |
| COCCOc1ccc2ncc(F)c(CCC34CCC(NCc5ccc6c(n5)NC(=O)CO6)(CC3)CO4)c2n1 |  |  |  |  |  |  | Active |
| NCCOc1ccc2ncc(F)c(CCC34CCC(NCc5ccc6c(n5)NC(=O)CO6)(CC3)CO4)c2n1 | 0.5 (≈ 0.957 µM) | 4 (≈ 7.65 µM) | 1 (≈ 1.91 µM) | 1 (≈ 1.91 µM) | 4 (≈ 7.65 µM) | 0.25 (≈ 0.478 µM) | Active |
| COC(=O)[C@H]1C[C@@H]1COc1ccc2ncc(F)c(CCC34CCC(NCc5ccc6c(n5)NC(=O)CO6)(CC3)CO4)c2n1 (relative stereo) | 0.25 (≈ 0.423 µM) | 4 (≈ 6.76 µM) | 16 (≈ 27 µM) | 8 (≈ 13.5 µM) | 16 (≈ 27 µM) | 0.031 (≈ 0.0524 µM) | Active |
| O=C1COc2ccc(CNC34CCC(CCc5c(F)cnc6ccc(OC[C@@H]7C[C@@H](O)[C@@H](O)C7)nc56)(CC3)OC4)nc2N1 | 0.5 (≈ 0.842 µM) | 4 (≈ 6.74 µM) | 16 (≈ 27 µM) | 8 (≈ 13.5 µM) | 32 (≈ 53.9 µM) | 0.125 (≈ 0.211 µM) | Active |
| CCOc1ccc2ncc(F)c(CCC34CCC(NCc5ccc6c(n5)NC(=O)CO6)(CC3)CO4)c2n1 | 0.5 (≈ 0.985 µM) | 2 (≈ 3.94 µM) | 4 (≈ 7.88 µM) | 2 (≈ 3.94 µM) | 8 (≈ 15.8 µM) | 0.031 (≈ 0.0611 µM) | Active |
| N[C@H]1C(=O)N[C@@H]1COc1ccc2ncc(F)c(CCC34CCC(NCc5ccc6c(n5)NC(=O)CO6)(CC3)CO4)c2n1 | 0.5 (≈ 0.866 µM) | 16 (≈ 27.7 µM) | 16 (≈ 27.7 µM) | 32 (≈ 55.4 µM) | 32 (≈ 55.4 µM) | 0.5 (≈ 0.866 µM) | Active |
| O=C1COc2ccc(CNC34CCC(CCc5c(F)cnc6ccc(OC7CCC7)nc56)(CC3)OC4)nc2N1 | 2 (≈ 3.75 µM) | 8 (≈ 15 µM) | 64 (≈ 120 µM) | 8 (≈ 15 µM) | 64 (≈ 120 µM) | 0.125 (≈ 0.234 µM) | Active |
| NCC(O)COc1ccc2ncc(F)c(CCC34CCC(NCc5ccc6c(n5)NC(=O)CO6)(CC3)CO4)c2n1 (stereo unspecified) | 1 (≈ 1.81 µM) | 16 (≈ 29 µM) | 8 (≈ 14.5 µM) | 32 (≈ 57.9 µM) | 16 (≈ 29 µM) | 2 (≈ 3.62 µM) | Active |
| O=C1COc2ccc(CNC34CCC([C@@H](O)Cc5c(F)cnc6ccc(OCCCO)nc56)(CC3)OC4)nc2N1 |  |  |  |  |  |  | Active |
| O=C1COc2ccc(CNC34CCC(CCc5c(F)cnc6ccc(OCCO)nc56)(CC3)OC4)nc2N1 |  |  |  |  |  |  | Active |
| NCCCOc1ccc2ncc(F)c(CCC34CCC(NCc5ccc6c(n5)NC(=O)CO6)(CC3)CO4)c2n1 [listing 1 of 2 here] | 0.5 (≈ 0.932 µM) | 4 (≈ 7.45 µM) | 2 (≈ 3.73 µM) | 2 (≈ 3.73 µM) | 8 (≈ 14.9 µM) | 0.25 (≈ 0.466 µM) |  |
| CCOC(=O)CCCOc1ccc2ncc(F)c(CCC34CCC(NCc5ccc6c(n5)NC(=O)CO6)(CC3)CO4)c2n1 | 0.125 (≈ 0.211 µM) | 2 (≈ 3.37 µM) | 8 (≈ 13.5 µM) | 2 (≈ 3.37 µM) | 8 (≈ 13.5 µM) | 0.031 (≈ 0.0522 µM) | Active |
| O=C1COc2ccc(CNC34CCC(CCc5c(F)cnc6ccc(OCC7(C(=O)O)CC7)nc56)(CC3)OC4)nc2N1 | 2 (≈ 3.46 µM) | 16 (≈ 27.7 µM) | 16 (≈ 27.7 µM) | 16 (≈ 27.7 µM) | 16 (≈ 27.7 µM) | 0.5 (≈ 0.866 µM) | Active |
| O=C1COc2ccc(CNC34CCC(CCc5c(F)cnc6ccc(OCC(F)(F)F)nc56)(CC3)OC4)nc2N1 | 1 (≈ 1.78 µM) | 4 (≈ 7.12 µM) | 16 (≈ 28.5 µM) | 8 (≈ 14.2 µM) | 16 (≈ 28.5 µM) | 0.063 (≈ 0.112 µM) | Active |
| O=C1COc2ccc(CNC34CCC(CCc5c(F)cnc6ccc(OCC(O)CO)nc56)(CC3)OC4)nc2N1 (stereo unspecified) | 1 (≈ 1.81 µM) | 4 (≈ 7.23 µM) | 16 (≈ 28.9 µM) | 4 (≈ 7.23 µM) | 32 (≈ 57.8 µM) | 0.125 (≈ 0.226 µM) | Active |
| O=C1COc2ccc(CNC34CCC(CCc5c(F)cnc6ccc(OCCCO)nc56)(CC3)OC4)nc2N1 [listing 1 of 2 here] | 0.25 (≈ 0.465 µM) | 1 (≈ 1.86 µM) | 4 (≈ 7.44 µM) | 2 (≈ 3.72 µM) | 16 (≈ 29.8 µM) | 0.016 (≈ 0.0298 µM) |  |
| COC(=O)[C@@H]1C[C@@H]1COc1ccc2ncc(F)c(CCC34CCC(NCc5ccc6c(n5)NC(=O)CO6)(CC3)CO4)c2n1 (relative stereo) |  |  |  |  |  |  | Active |
| O=C1COc2ccc(CNC34CCC(CCc5c(F)cnc6ccc(OCCCO)nc56)(CC3)OC4)nc2N1 [listing 2 of 2 here] |  |  |  |  |  |  | Active |
| NCCCOc1ccc2ncc(F)c(CCC34CCC(NCc5ccc6c(n5)NC(=O)CO6)(CC3)CO4)c2n1 [listing 2 of 2 here] |  |  |  |  |  |  | Active |
